The text below walks through data of patent US20240116856A1 (Young BioPharma, LLC, priority 2020, published 2024).

The test system of one series is MDA-MB-231 cell invasion. Briefly: Cancer cell invasion assay, MDA-MB-231. The format is cell-based, human. The following applies: 24 h. The gist of the method: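 Transwell inserts were coated with membrane matrix gel (0.5-0.6 mg/mL) and loaded with 1×10^5 human cancer cells in RPMI 1640, with 10% FBS medium below as attractant. Compound or DMSO went into both compartments for 24 h at 37 °C. Invaded cells were fixed, crystal-violet stained, counted in 5 random fields and expressed as % of DMSO control.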

For series [1], the system named is Src protein activation in MDA-MB-231 cells. Briefly: Cancer cell immunocytochemistry assay, Phospho-Src (Y416), MDA-MB-231. The format is cell-based, human. Particulars: YB-1 15 μM, capsaicin 50 μM, 1-6 h. As to the method: (§1) Human cancer cells (15,000 cells/well) in 96 well half area microplate (Cat #3882, Corning) were incubated overnight at 37° C., then compounds or DMSO control were added to the cell culture and incubated at 37° C. for 1-6 h. The cells were sequentially fixed with 4% formalin, permeabilized with 0.5% Triton X-100, blocked with 5% BSA in PBS, incubated with Human Phospho-Src (Y416) Antibody (Cat #MAB2685, R&D Systems) at rt for 2 h, incubated with the secondary antibody Goat Ant-Rabbit IgG H&L (Alexa Fluor 488) (Cat #ab150077, abeam) for 45 min, and incubated with DAPI (Cat #D9542, Sigma-Aldrich) for 5 min. Finally, the cells were washed and covered with PBS. The cell images were visualized on an inverted fluorescence microscope (Leica DMIL Fluorescent Inverted Microscope with Digital Camera, Leica Microsystems). Pictures were taken [FIGS. 14A-C. Green: Human Phospho-Src (Y416), the activated form of the Src protein; Blue: DAPI (stain nucleus of cell)]. The fluorescence intensity values from 5 random cells were averaged, subtracted by the background value (area between cells) and the blank value [the blank control without the Human Phospho-Src (Y416) Antibody], then plotted as percentage against the DMSO control to indicate the effects of compound treatment on the cellular Src kinase phosphorylation levels in the cancer cells (FIGS. 15A-D).

A further series deals with NCI-H460 cell invasion. Put plainly: Cancer cell invasion assay, NCI-H460. The format is cell-based, human. The following applies: 24 h. How it is done:
A cancer cell invasion assay was developed based on literature protocols (Methods 2005, 37, 208; EMBO J 2002, 21, 6289; Cellular Signalling 2012, 24, 1276.). Membrane matrix gel (Cat #A1413201, ThermoFisher) was diluted in ice-cold, serum-free RPMI 1640 Medium (Cat #31800022, ThermoFisher) at a concentration of 0.5-0.6 mg/mL. Then it was added to the upper compartment (100 μL per cup) of millicell inserts (Cat #PI8P01250, ThermoFisher) placed in a 24-well plate (Part no. 229123, Celltreat). The plate was incubated at 37° C. for 2 h to allow the liquid gel to solidify. RPMI 1640 Medium supplemented with 10% FBS (300 μL) was added to the well of the plate (lower compartment) as attractant, then DMSO or compounds were added. Human cancer cells (1×10^5 cells in 200 μL of RPMI 1640 Medium) were added to the upper compartment of the insert, then DMSO or compounds were added. After the plate was incubated at 37° C. for 24 h, the cells were fixed on the lower side of the insert membrane with 4% formaldehyde and stained with 1% crystal violet (Part no. IS12146, Innovating Science). The invaded cells on the lower side of the filter were counted under an inverted microscope equipped with either a 4× or a 10× objective (FIG. 11). The cell numbers from 5 random views were averaged and plotted as percentage against the DMSO control (FIG. 12A).

Another series deals with MDA-MB-231. Put plainly: Human cancer cell growth inhibition assay (ATP assay), MDA-MB-231. The series is classed as cell-based. The following applies: Homo sapiens, MDA-MB-231, 96 h; 4 days; Means±SEM from three independent experiments; read-out: MDA-MB-231, IC50.
The target of the next series is T1, human TRPA1 (Homo sapiens, UniProt O75762).
T1 construct: expressed in transfected cells; host or cells: overexpressing cells
Briefly: In vitro Ca2+ flux counter-screen in human TRPA1 overexpressing cells. The format is cell-based. Particulars: counter-screen; read-out: TRPA1 EC50. (Calcium assays in cells follow changes in intracellular calcium, usually with a dye or a luminescent sensor.)

Series [2] is described as follows: Operant Pain Tolerance Assay. The series is classed as in vivo. Particulars: intraplantar. How it is done:
Model 3—The ability of YB-16 to increase pain tolerance was tested using a newly published Operant Pain Tolerance Assay (eNeuro 2020, 7, ENEURO.0210-19.2020). In the assay, mice were trained to seek a sucrose reward that was on a hot 42° C. plate (versus no reward on a neutral 30° C. plate). It was noticed that intraplantar YB-16 treated mice with paw inflammatory injury [induced by Complete Freund's adjuvant (CFA) 24 hrs prior to treatment] trended to spend 145% more time on the hot side of the assay but not necessarily additional time near the sucrose bottle compared to vehicle treated mice (FIG. 10B).

Series [3] relates to MDA-MB-231 breast cancer tumors. Particulars: literature; cited from earlier work.
The conditions of series [4]: Scoville Heat Units, cited from earlier work.
A further series addresses T2, human TRPV3 (Homo sapiens, UniProt Q8NET8).
T2 construct: expressed in transfected cells; host or cells: overexpressing cells
T2 sequence (Q8NET8 1-790): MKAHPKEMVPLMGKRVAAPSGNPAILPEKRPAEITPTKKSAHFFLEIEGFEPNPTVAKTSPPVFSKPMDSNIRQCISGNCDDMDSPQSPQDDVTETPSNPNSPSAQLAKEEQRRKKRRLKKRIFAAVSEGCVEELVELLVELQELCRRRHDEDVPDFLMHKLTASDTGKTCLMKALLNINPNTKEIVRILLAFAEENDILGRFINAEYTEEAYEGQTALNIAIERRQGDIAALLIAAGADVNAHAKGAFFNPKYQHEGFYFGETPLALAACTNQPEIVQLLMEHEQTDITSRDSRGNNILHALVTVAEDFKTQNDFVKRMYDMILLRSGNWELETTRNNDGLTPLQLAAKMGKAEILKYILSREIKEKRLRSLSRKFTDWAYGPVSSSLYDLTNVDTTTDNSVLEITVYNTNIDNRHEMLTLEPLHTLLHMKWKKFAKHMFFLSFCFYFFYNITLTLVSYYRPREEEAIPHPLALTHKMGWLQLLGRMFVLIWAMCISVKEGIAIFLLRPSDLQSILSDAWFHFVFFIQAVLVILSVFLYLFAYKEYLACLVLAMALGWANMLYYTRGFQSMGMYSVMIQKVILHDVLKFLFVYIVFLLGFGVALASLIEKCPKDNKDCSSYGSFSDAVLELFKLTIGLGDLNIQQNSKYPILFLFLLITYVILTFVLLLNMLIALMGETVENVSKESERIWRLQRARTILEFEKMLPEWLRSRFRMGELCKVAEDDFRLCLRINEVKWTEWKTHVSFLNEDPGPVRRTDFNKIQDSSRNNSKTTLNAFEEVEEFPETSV
Briefly: In vitro Ca2+ flux counter-screen in human TRPV3 overexpressing cells. The series is classed as cell-based. Particulars: counter-screen; read-out: TRPV3 EC50.

The test system of series [5] is Src protein activation in NCI-H460 cells. Briefly: Cancer cell immunocytochemistry assay, Phospho-Src (Y416), NCI-H460. The format is cell-based, human. The following applies: YB-1 15 μM, capsaicin 50 μM, 1-6 h. As to the method: as §1

Read-outs that look alike come from different tables or passages of the source.

T1 sequence (O75762 whole entry): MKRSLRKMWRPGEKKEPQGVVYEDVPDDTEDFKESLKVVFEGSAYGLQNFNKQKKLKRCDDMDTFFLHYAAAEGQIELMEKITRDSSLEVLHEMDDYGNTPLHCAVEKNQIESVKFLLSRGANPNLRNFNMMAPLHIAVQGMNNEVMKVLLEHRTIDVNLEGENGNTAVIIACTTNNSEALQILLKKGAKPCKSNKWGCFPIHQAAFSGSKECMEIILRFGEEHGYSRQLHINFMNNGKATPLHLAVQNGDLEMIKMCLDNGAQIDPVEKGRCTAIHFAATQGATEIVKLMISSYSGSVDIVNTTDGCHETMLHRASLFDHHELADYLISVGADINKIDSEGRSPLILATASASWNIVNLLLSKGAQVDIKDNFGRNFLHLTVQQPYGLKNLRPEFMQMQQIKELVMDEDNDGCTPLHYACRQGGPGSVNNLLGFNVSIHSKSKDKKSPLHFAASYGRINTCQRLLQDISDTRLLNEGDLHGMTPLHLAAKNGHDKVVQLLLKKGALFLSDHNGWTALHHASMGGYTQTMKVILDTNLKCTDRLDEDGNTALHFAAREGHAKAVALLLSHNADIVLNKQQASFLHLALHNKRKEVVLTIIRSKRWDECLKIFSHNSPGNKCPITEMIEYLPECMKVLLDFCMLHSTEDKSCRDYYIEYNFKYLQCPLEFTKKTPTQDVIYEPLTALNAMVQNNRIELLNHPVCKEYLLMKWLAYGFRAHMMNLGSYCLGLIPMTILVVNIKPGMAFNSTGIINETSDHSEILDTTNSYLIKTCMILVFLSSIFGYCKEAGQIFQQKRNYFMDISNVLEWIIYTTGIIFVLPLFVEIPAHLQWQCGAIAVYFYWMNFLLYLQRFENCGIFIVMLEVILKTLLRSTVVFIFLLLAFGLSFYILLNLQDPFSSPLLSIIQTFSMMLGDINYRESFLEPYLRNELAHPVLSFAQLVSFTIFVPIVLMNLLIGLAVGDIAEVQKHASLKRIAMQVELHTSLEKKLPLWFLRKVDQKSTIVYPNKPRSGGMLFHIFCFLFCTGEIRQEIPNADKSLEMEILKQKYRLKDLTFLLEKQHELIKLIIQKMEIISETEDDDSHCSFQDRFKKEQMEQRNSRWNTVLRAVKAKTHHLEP

Regarding `COc1cc(CNC(=O)CCCC/C=C/C(C)C)ccc1O` [Capsaicin, trans-8-methyl-N-vanillyl-6-nonenamide, reference compound], the “inhibition of MDA-MB-231 cell invasion” value in the series on MDA-MB-231 cell invasion is reported as “dose-dependently inhibited”. Also, the “cellular Src kinase phosphorylation levels” value in series [1] and in series [5] was “time-dependently reduced the cellular Src kinase phosphorylation levels” throughout. In addition, the “inhibition of NCI-H460 cell invasion” value with NCI-H460 cell invasion is “dose-dependently inhibited”. The IC50 in the series on MDA-MB-231 stood at 387 ± 120 µM. The EC50 at human TRPA1 and on human TRPV3 was over 10 µM throughout. In addition, the “sedation in operant pain tolerance assay” value in [2] is recorded as “inflammatory injury with sedation”. The “sensitivity to hot plate after inflammatory injury” value in series [2] (paw inflammatory injury (CFA)) is listed as “Weak trend for reduced sensitivity to”. In addition, the “decrease of tumor size” value in series [3] is reported as 50%. For the same compound, the “Pungency (SHU)” value in series [4] is listed as 16,000,000 SHU; in [4] (listed as capsaicin) it was 16.0 million.

The term IC50 denotes the concentration needed to halve the response being measured. By EC50 is commonly meant the concentration that produces a half-maximal response.
